Earlier results as cited in article PMC8287861 (Frontiers in Microbiology, 2021).
In brackets after ≈: the same amount, converted by molar mass. Like-named read-outs stand apart in the source and are kept apart here.

Experiments:
SHV-12 [1] = molecular target: SHV-12; design: method as in Tsivkovski et al. (2020); conditions: ref Tsivkovski et al. (2020)
[2] = tested on: isogenic strains of P. aeruginosa that produced KPC; design: method as in Lomovskaya et al., 2020a; conditions: ref Lomovskaya et al., 2020a; for PV50: potency to enhance biapenem activity;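 as to PV50: read from a curve of biapenem MIC plotted against inhibitor concentration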
P99 [3] = tested on: P99; design: method as in Tsivkovski et al. (2020); conditions: P99, class C; ref Tsivkovski et al. (2020)
OXA-48 [4] = molecular target: OXA-48; design: method as in Tsivkovski et al. (2020); conditions: ref Tsivkovski et al. (2020)
[5] = design: method as in Hecker et al., 2020; conditions: rats, doses of 30–100 mg/kg; ref Hecker et al., 2020
KPC-2 [6] = tested on: KPC-2; design: method as in Tsivkovski et al. (2020); conditions: KPC-2, class A; ref Tsivkovski et al. (2020)
VIM-1 [7] = tested on: VIM-1; design: method as in Tsivkovski et al. (2020); conditions: VIM-1, class B; ref Tsivkovski et al. (2020)
[8] = tested on: Acinetobacter baumannii mutants producing OXA-23; design: method as in Lomovskaya et al., 2020a; conditions: overexpression of efflux pumps; ref Lomovskaya et al., 2020a
OXA-23 [9] = tested on: OXA-23; design: method as in Tsivkovski et al. (2020); conditions: OXA-23, class D; ref Tsivkovski et al. (2020)
TEM-43 = molecular target: TEM-43; design: method as in Tsivkovski et al. (2020); conditions: ref Tsivkovski et al. (2020)
[10] = design: method as in Sabet et al., 2020; conditions: plasma QPX7728 exposure associated with 8 μg/ml; ref Sabet et al., 2020
BKC-1 = molecular target: BKC-1; design: method as in Tsivkovski et al. (2020); conditions: ref Tsivkovski et al. (2020)
IMP-1 [11] = molecular target: IMP-1; design: method as in Tsivkovski et al. (2020); conditions: ref Tsivkovski et al. (2020)
VIM-1 [12] = molecular target: VIM-1; design: method as in Tsivkovski et al. (2020); conditions: ref Tsivkovski et al. (2020)
OXA-23 [13] = molecular target: OXA-23; design: method as in Tsivkovski et al. (2020); conditions: ref Tsivkovski et al. (2020)
SME-2 = molecular target: SME-2; design: method as in Tsivkovski et al. (2020); conditions: ref Tsivkovski et al. (2020)
[14] = tested on: ESBL and CRE producing strains of Enterobacterales; design: method as in Nelson et al. (2020a; 2020b); conditions: ref Nelson et al. (2020a; 2020b)
CTX-M-15 [15] = molecular target: CTX-M-15; design: method as in Tsivkovski et al. (2020); conditions: ref Tsivkovski et al. (2020)
CTX-M-15 [16] = tested on: CTX-M-15; design: method as in Tsivkovski et al. (2020); conditions: CTX-M-15, class A; ref Tsivkovski et al. (2020)
[17] = tested on: carbapenem-resistant strains of Enterobacterales (CRE); design: method as in Nelson et al. (2020a); conditions: with meropenem, ref Nelson et al. (2020a)
IMP-1 [18] = tested on: IMP-1; design: method as in Tsivkovski et al. (2020); conditions: class B, ref Tsivkovski et al. (2020)
OXA-58 = molecular target: OXA-58; design: method as in Tsivkovski et al. (2020); conditions: ref Tsivkovski et al. (2020)
KPC-3 = molecular target: KPC-3; design: method as in Tsivkovski et al. (2020); conditions: ref Tsivkovski et al. (2020)
[19] = tested on: carbapenem resistant Acinetobacter baumannii; conditions: in combination with meropenem; majority of the subsets of strains; ref Nelson et al., 2020b
SHV-12 [20] = conditions: SHV-12, class A; ref Tsivkovski et al. (2020)
OXA-24 = molecular target: OXA-24; design: method as in Tsivkovski et al. (2020); conditions: ref Tsivkovski et al. (2020)
KPC-2 [21] = conditions: ref Tsivkovski et al. (2020)
OXA-48 [22] = tested on: OXA-48; design: method as in Tsivkovski et al. (2020); conditions: OXA-48, class D; ref Tsivkovski et al. (2020)
P99 [23] = molecular target: P99; design: method as in Tsivkovski et al. (2020); conditions: ref Tsivkovski et al. (2020)
CTX-M-14 = tested on: CTX-M-14; design: method as in Tsivkovski et al. (2020); conditions: CTX-M-14, class A; ref Tsivkovski et al. (2020)
FRI-1 = molecular target: FRI-1; design: method as in Tsivkovski et al. (2020); conditions: ref Tsivkovski et al. (2020)
[24] = tested on: KPC-producing porin/efflux mutants of K. pneumoniae; conditions: ref Lomovskaya et al., 2020a
[25] = inactivation of OmpK35 and OmpK36 and increased efflux

## O=C(O)c1c(F)ccc2c1OB(O)[C@@H]1C[C@H]21 [QPX7728]
SHV-12 [1]
  Kd: 28 ± 4 nM
[2]; PAM4126, mexR (MexAB-OprM)
  PV50: 2 µg/mL
[2]; PAM4129, nfxB (MexCD-OprJ)
  PV50: 0.5 µg/mL
[2]; PAM4132, mexT (MexEF-OprM)
  PV50: 1 µg/mL
[2]; PAM4150, mexZ (MexXY-OprM)
  PV50: 1 µg/mL
[2]; PAM4224, Wild-type
  PV50: 1 µg/mL
[2]; PAM4365, MexA::Tet
  PV50: 1 µg/mL
[2]; mexAB-oprM efflux operon overexpressed
  reduction in potency: No more than two-fold reduction in potency
[2]
  effect of inactivation of the carbapenem porin OprD on potency: did not have any effect
P99 [3]
  IC50: 22 ± 6 nM
OXA-48 [4]
  Kd: 0.13 ± 0.01 nM
[5]
  oral bioavailability: 43–53%
KPC-2 [6]
  IC50: 2.9 ± 0.4 nM
VIM-1 [7]
  IC50: 14 ± 4 nM
[8]
  effect of efflux on potency to inhibit β-lactamase: no effect of efflux on the potency
OXA-23 [9]
  IC50: 1.2 ± 0.4 nM
TEM-43
  Kd: 0.17 ± 0.02 nM
[10]
  efficacy of plasma exposure: efficacious in animal models of infection
BKC-1
  Kd: 0.06 ± 0.005 nM
IMP-1 [11]; IMP-1 (text b23 calls it Ki)
  Kd: 240 ± 30 nM
IMP-1 [11]; IMP-1, competitive inhibitor
  Ki: ~240 nM
VIM-1 [12]; VIM-1 (text b23 calls it Ki)
  Kd: 7.5 ± 2.1 nM
VIM-1 [12]; VIM-1, competitive inhibitor
  Ki: ~7 nM
OXA-23 [13]
  Kd: 1.6 ± 0.2 nM
SME-2
  Kd: 0.15 ± 0.02 nM
[14]; in combination with aztreonam at 8 μg/ml (FDA susceptible breakpoint)
  TPC90: 4 µg/mL
[14]; in combination with cefepime at 8 μg/ml (FDA susceptible breakpoint)
  TPC90: 4 µg/mL
CTX-M-15 [15]
  Kd: 0.11 ± 0.02 nM
CTX-M-15 [16]
  IC50: 1.2 ± 0.1 nM
[17]; 598 CRE, breakpoint of 8 μg/ml
  TPC90: 4 µg/mL
[17]; subsets with carbapenemase production and non-β-lactamase-mediated resistance mechanisms
  TPC90: 4 to 8 µg/mL
IMP-1 [18]
  IC50: 610 ± 70 nM
OXA-58
  Kd: 3.2 ± 0.3 nM
KPC-3
  Kd: 0.31 ± 0.06 nM
[19]
  TPC90: less than or equal to 8 μg/ml
SHV-12 [20]
  IC50: 1.9 ± 0.6 nM
OXA-24
  Kd: 0.58 ± 0.1 nM
KPC-2 [21]
  Kd: 0.25 ± 0.03 nM
OXA-48 [22]
  IC50: 1.1 ± 0.4 nM
P99 [23]
  Kd: 0.53 ± 0.06 nM
CTX-M-14
  IC50: 0.94 ± 0.2 nM
FRI-1
  Kd: 0.11 ± 0.01 nM
[24]; before porin/efflux mutations
  potency to completely inhibit KPC: 0.125 µg/mL (≈ 0.563 µM)
[24]; [25]
  potency to completely inhibit KPC: 4 µg/mL (≈ 18 µM)
  reduction of the potency to completely inhibit KPC: ca. 32 fold
